Assay [1] concerns the target T1, Microphthalmia-associated transcription factor (Homo sapiens, UniProt O75030).
T1 sequence (O75030 whole entry): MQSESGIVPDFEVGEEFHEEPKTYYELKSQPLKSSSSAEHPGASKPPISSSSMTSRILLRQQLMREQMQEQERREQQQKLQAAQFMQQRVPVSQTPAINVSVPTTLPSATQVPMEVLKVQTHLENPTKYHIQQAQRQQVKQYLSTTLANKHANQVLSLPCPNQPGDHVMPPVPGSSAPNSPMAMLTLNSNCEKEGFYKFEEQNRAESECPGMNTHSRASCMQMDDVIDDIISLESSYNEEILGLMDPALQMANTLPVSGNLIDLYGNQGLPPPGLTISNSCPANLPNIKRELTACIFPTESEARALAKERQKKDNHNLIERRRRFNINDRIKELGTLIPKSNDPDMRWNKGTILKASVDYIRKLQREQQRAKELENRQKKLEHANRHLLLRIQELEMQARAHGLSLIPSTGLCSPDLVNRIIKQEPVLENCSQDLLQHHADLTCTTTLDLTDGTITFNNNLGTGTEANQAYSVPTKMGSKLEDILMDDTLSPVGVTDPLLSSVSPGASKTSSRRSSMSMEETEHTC
Put plainly: reducers of TRPM1 reporter luminescence, concentration series – cell-based, SK-MEL-5, cherry-picked, set 3, MITF inhibitor project, dose response (AID 493073).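 Note: SK-MEL-5 melanoma cells with luciferase driven by the MITF target TRPM1 promoter.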 It is filed as functional.

Assay [2] deals with Matrix metalloproteinase-14 (Homo sapiens, UniProt P50281). Kind of assay: Dose Response confirmation of uHTS hits for a small molecule inhibitors of MT1-MMP activation in a fluorescence assay set 1. The class given is functional.
The target of assay [3] is Cytochrome P450 3A4 (Homo sapiens, UniProt P08684).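 Note: CYP3A4 tested as one member of a cytochrome P450 panel screen.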
Chain of Cytochrome P450 3A4 (P08684 whole entry): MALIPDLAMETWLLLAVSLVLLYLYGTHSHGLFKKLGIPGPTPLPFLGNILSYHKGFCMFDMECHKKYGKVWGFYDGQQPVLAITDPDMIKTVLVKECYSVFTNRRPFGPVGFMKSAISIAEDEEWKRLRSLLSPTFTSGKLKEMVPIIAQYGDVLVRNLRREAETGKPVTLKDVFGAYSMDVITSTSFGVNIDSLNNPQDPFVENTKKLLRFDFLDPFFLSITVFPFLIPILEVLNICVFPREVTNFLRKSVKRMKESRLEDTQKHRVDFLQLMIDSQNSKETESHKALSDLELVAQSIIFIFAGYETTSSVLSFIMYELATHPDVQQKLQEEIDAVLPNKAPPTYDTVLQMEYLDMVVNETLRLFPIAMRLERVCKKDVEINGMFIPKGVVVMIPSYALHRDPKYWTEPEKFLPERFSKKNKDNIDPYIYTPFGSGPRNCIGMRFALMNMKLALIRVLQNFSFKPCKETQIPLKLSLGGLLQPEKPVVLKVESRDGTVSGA
In assay [4] the test system is Streptococcus sp. 'group A'. Kind of assay: Streptococcus pyogenes SK(-)GAS viability under kanamycin – luminescence, BacTiterGlo, confirmation, counter-screen for streptokinase expression inhibitor project, dose response (AID 1900). The class given is functional, organism-based.
The subject of assay [5] is INS1. Kind of assay: INS-1E survival protection against cytokine death – cell-based, luminescence, retest, dose response (AID 449756).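 Note: cell death triggered by IL-1 beta plus TNF-alpha plus IFN-gamma mixture; protective hits raise ATP signal compared with cytokine alone wells.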 It is filed as functional. Conditions: Rattus norvegicus.
A short description of assay [6]: general mammalian cell viability loss – inhibitor set, cherry-pick, set 2, cytotoxicity control for miR-122 modulator project, dose response (AID 720697). The class given is functional, cell-based.
Assay [7] deals with Long-chain-fatty-acid--AMP ligase FadD28 (Mycobacterium tuberculosis, UniProt P9WQ59). Put plainly: Fluorescence polarization aasay to screen for inhibitors that compete for the binding of FadD28 to a bisubstrate Measured in Biochemical System Using Plate Reader - 2147-01_Inhibitor_Dose_CherryPick_Activity. It is filed as functional, Mycobacterium tuberculosis H37Rv.
Chain of Long-chain-fatty-acid--AMP ligase FadD28 (P9WQ59 whole entry): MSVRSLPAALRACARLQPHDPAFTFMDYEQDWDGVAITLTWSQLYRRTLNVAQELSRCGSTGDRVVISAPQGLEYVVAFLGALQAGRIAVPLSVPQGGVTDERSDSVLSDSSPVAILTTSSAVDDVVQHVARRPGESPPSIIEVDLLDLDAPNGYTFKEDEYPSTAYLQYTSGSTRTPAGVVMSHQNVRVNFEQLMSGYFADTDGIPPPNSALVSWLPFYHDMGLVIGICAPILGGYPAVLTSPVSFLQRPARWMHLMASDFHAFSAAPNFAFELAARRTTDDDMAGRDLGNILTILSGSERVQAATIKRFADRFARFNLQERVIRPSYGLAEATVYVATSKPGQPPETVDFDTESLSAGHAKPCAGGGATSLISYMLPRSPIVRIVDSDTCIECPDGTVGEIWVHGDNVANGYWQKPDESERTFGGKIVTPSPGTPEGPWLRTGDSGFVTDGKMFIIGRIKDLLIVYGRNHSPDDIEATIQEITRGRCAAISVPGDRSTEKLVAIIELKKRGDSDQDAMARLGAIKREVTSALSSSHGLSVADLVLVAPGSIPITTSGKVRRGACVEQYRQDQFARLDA
Assay [8] addresses Paired box protein Pax-8 (Homo sapiens, UniProt Q06710). Kind of assay: PAX8 transcriptional activity inhibition in RMG-I – RMG-I cells, luciferase, cherry-pick, dose response (AID 687027).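 Note: luciferase reporter driven by Pax8 target thyroperoxidase promoter measured by SteadyGlo luminescence.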 The class given is functional, cell-based.
A short description of assay [9]: luciferase reporter signal suppression in cells – H4 neuroglioma cells, luminescence, dose response (AID 1990). It is filed as functional, cell-based.
Assay [10] is described as follows: Luminescence Cell-Based Dose Response HTS to Identify Inhibitors of 5'UTR Stem-Loop Driven Prion Protein mRNA Translation in H4 Neuroglioblastoma Cells. [Related pubchem assays: 1827 (Project Summary), 1813 (Primary HTS)]. The class given is functional.
The target in assay [11] is Melanocortin receptor 4 (Homo sapiens, UniProt P32245). It is filed as functional, cell-based.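 Note: Cell-based assay with luminescence read-out, confirmatory dose-response testing for agonist activity of biased ligands at MC4R; human U2OS cells with tagged receptor and beta-arrestin; potency of agonists that increase receptor coupling to beta-arrestin.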
Chain of Melanocortin receptor 4 (P32245 whole entry): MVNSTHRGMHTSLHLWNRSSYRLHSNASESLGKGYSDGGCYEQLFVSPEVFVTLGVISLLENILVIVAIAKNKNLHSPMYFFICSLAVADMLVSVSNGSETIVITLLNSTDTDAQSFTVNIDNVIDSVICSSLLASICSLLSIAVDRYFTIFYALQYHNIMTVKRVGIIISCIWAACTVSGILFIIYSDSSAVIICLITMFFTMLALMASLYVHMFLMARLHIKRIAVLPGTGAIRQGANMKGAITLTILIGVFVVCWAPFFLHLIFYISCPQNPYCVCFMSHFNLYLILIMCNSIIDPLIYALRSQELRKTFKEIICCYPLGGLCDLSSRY
A short description of assay [12]: activation of miR-122 Renilla sensor silencing – cell-based, Huh7 psiCHECK-miR122, Renilla luciferase, cherry-picked, dose response (AID 651956).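 Note: huh7 hepatoma cells stably carrying a psiCHECK-2 miR-122 sensor plasmid; renilla luciferase signal reporting endogenous miR-122 activity after 48 h compound exposure.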 It is filed as functional.
The target in assay [13] is T2, Ubiquitin-conjugating enzyme E2 N (Homo sapiens, UniProt P61088).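 Note: Dose-response confirmation in a TR-FRET assay detecting UBC13-driven polyubiquitin chain formation, inhibition measured.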
T2 sequence (P61088 whole entry): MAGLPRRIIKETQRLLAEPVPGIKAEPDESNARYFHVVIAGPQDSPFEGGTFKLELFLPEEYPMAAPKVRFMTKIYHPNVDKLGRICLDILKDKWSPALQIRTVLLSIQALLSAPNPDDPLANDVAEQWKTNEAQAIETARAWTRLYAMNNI
The class given is functional.

A short description of assay [14]: alpha-synuclein stem-loop luciferase translation blockers – H4 neuroglioma cells, luminescence, confirmation (AID 1988). The class given is functional, cell-based.
The nature of assay [15]: general cell-killing toxicity readout – plate reader, dry powder samples, cytotoxicity control for PAX8 inhibitor project, dose response (AID 743021). It is filed as functional, cell-based.
Assay [16] in a line: general mammalian cell viability loss – activator set, cherry-pick, cytotoxicity control for miR-122 modulator project, dose response (AID 720690).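 Note: HEK293T human cells scored for general mammalian cytotoxicity.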 The class given is functional, cell-based.
The target of assay [17] is T3, Interleukin-8 (Homo sapiens, UniProt P10145). Kind of assay: Dose Response confirmation of uHTS small molecule hits for cystic fibrosis induced NFkb Inhibitors in a TNFa-induced IL8 counterscreen. It is filed as functional. Conditions: read-out: IC50_Mean.
T3 sequence (P10145 whole entry): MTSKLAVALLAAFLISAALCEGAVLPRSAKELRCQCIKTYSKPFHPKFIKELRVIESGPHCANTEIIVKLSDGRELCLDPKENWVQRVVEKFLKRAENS
In assay [18] the target is T3, Interleukin-8. Put plainly: Dose Response confirmation of uHTS small molecule hits for cystic fibrosis induced NFkb Inhibitors in a PAF-induced IL8 counterscreen. The class given is functional. Conditions: read-out: IC50_Mean.
Assay [19] has as its target T4, Streptokinase A (Streptococcus pyogenes serotype M1, UniProt P10520).
T4 sequence (P10520 whole entry): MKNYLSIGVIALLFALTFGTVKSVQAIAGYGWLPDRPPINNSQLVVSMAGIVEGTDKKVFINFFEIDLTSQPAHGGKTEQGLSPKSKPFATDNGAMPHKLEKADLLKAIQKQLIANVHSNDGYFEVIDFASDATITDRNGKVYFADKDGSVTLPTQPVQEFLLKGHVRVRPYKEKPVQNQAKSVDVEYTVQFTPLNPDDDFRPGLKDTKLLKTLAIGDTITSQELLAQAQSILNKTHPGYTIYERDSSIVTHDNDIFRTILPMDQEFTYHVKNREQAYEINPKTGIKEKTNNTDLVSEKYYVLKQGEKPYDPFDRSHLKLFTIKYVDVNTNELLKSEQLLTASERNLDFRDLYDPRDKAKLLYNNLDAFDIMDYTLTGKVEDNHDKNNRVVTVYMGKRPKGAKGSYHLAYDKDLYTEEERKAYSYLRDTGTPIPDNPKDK
Kind of assay: viability-normalized secreted streptokinase activity reduction – plasminogen activation absorbance, OD405, dose response (AID 1914).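 Note: secreted streptokinase activity via plasminogen activation per viability signal from cell pellet.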 It is filed as functional, Streptococcus pyogenes M1 GAS.

The subject of assay [20] is Streptococcus. Kind of assay: GAS UMAA2166 growth inhibition – luminescence, BacTiterGlo, counter-screen for streptokinase expression inhibitor project, dose response (AID 1915).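 Note: potency for reduction of bacterial viability or growth.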 It is filed as functional, organism-based.
The target of assay [21] is DNA repair and recombination protein RAD54-like (Homo sapiens, UniProt Q92698). Kind of assay: RAD54 Holliday junction migration blockers – biochemical, fluorescence, cherry-picked samples, dose series, confirmation (AID 651657). It is filed as functional.
Chain of DNA repair and recombination protein RAD54-like (Q92698 whole entry): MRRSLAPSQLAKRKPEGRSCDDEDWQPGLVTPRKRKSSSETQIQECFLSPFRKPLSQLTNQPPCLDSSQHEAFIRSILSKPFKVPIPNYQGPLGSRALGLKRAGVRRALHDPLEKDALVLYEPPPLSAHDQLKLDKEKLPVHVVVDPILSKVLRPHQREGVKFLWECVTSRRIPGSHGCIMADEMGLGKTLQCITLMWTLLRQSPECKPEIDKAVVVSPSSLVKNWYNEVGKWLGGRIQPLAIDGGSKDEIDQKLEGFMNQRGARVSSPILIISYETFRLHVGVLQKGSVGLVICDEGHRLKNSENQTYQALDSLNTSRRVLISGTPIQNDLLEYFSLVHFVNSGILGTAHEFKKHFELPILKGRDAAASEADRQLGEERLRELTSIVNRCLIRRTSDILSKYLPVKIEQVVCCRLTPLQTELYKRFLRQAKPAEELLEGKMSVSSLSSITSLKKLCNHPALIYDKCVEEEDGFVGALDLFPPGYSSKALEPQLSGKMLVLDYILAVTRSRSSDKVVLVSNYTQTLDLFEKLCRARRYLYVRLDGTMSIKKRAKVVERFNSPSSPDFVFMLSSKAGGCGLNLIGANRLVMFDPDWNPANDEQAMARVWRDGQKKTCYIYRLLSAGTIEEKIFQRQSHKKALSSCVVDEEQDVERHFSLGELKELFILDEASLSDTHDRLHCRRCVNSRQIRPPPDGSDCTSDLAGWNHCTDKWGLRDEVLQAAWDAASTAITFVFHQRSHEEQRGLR
In assay [22] the target is T5, DNA repair protein RAD52 homolog (Homo sapiens, UniProt P43351).
T5 sequence (P43351 whole entry): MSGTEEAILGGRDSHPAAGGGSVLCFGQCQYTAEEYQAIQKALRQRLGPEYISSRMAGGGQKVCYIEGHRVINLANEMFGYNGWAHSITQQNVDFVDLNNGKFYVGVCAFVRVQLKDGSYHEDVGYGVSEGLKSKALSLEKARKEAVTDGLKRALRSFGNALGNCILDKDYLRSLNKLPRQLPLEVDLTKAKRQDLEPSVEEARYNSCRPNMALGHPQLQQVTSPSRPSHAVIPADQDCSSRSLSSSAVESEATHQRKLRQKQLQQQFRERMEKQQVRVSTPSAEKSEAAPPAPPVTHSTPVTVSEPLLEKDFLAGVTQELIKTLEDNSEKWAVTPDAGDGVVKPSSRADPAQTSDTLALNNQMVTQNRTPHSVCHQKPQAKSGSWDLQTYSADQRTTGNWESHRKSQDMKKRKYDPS
It is filed as functional, biochemical.

The target of assay [23] is Broad substrate specificity ATP-binding cassette transporter ABCG2 (Homo sapiens, UniProt Q9UNQ0). Kind of assay: blockers of JC-1 export by ABCG2 – Ig-MXP3 cells, flow cytometry, dose response (AID 1690). The class given is functional.
Chain of Broad substrate specificity ATP-binding cassette transporter ABCG2 (Q9UNQ0 whole entry): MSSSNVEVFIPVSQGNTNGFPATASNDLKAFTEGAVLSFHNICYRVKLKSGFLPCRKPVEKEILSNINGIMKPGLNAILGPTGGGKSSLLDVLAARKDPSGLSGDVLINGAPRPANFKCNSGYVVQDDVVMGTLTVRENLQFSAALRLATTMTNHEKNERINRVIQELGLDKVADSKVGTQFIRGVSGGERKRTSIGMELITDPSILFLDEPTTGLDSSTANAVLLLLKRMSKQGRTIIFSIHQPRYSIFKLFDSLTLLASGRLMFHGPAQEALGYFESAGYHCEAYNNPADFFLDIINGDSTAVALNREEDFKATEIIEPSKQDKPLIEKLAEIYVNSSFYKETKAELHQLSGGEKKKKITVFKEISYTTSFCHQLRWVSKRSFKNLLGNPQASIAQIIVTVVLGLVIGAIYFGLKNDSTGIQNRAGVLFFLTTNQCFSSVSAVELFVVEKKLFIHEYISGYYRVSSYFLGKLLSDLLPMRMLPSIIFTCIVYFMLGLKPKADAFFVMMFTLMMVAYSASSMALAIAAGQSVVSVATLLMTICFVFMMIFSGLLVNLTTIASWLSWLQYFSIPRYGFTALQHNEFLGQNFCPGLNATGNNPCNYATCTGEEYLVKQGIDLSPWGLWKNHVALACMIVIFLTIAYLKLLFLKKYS
A short description of assay [24]: HEK-293T cell viability reduction – luminescence, B-cell screen hits, cytotoxicity control for BCR NF-kB inhibitor project, dose response (AID 489021).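 Note: HEK-293T cells carrying an NF-kB luciferase reporter; cells exposed to compound for about 14 hours before viability readout.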 The class given is functional, cell-based.
Assay [25] has as its target Prothrombin (Bos taurus, UniProt P00735). Put plainly: thrombin protease inhibitors – biochemical, fluorescence polarization, uHTS hits, dose response (AID 602369). It is filed as functional.
Assay [26] deals with 72 kDa type IV collagenase (Homo sapiens, UniProt P08253). Put plainly: Dose Response validation of uHTS RPN11 inhibitor hits using a MMP-2 Fluorescence assay. The class given is functional.
Chain of 72 kDa type IV collagenase (P08253 whole entry): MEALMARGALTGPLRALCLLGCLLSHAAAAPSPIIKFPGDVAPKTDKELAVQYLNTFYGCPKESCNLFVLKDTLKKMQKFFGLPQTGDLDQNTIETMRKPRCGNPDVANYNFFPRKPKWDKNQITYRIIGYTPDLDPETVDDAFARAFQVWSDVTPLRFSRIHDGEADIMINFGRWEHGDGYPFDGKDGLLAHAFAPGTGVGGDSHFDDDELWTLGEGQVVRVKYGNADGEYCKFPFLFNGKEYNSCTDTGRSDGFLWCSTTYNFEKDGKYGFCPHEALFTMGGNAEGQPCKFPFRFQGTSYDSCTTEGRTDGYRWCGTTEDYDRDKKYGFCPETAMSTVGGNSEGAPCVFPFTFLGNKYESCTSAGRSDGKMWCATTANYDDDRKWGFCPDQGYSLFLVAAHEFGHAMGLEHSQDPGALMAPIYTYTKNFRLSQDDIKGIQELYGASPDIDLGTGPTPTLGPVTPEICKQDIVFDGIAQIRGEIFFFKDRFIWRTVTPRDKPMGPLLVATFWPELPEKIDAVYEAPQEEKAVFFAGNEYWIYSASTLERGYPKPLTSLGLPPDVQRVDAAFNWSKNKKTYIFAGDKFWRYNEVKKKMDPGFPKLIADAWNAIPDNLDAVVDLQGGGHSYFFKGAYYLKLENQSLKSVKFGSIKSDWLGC
Assay [27] has as its target 26S proteasome non-ATPase regulatory subunit 14 (Homo sapiens, UniProt O00487). Kind of assay: inhibition of proteasome subunit RPN11 – biochemical, fluorescence polarization, uHTS hits, confirmation (AID 602368). The class given is functional.
Assay [28] addresses Albumin (Bos taurus, UniProt P02769). Put plainly: Counterscreen for inhibitors of T-cell receptor (TCR)-CD3 interaction: Fluorescence-based biochemical high throughput dose response assay to identify inhibitors of T-cell receptor (TCR)-CD3 interaction using a TAMRA-labeled BSA probe. It is filed as functional.
For assay [29], the target named is Photoreceptor-specific nuclear receptor (Homo sapiens, UniProt Q9Y5X4). It is filed as functional, cell-based.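 Note: CHO-S cells with Gal4-NCOR and VP16-NR2E3 two-hybrid luciferase reporter.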
Chain of Photoreceptor-specific nuclear receptor (Q9Y5X4 whole entry, the tested form may be a part): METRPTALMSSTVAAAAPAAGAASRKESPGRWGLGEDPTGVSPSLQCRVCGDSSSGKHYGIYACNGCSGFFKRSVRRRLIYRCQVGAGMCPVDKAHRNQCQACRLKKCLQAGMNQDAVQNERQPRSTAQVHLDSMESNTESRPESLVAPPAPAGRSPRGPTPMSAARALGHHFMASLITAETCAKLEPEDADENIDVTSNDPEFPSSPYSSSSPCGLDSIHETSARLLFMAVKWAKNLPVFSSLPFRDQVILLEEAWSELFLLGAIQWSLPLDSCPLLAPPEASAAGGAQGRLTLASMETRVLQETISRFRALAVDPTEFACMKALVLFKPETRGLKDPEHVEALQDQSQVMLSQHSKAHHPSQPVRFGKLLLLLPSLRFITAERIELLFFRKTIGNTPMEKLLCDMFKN

Calls of active or inactive are those of the source.

Chain of 26S proteasome non-ATPase regulatory subunit 14 (O00487 whole entry): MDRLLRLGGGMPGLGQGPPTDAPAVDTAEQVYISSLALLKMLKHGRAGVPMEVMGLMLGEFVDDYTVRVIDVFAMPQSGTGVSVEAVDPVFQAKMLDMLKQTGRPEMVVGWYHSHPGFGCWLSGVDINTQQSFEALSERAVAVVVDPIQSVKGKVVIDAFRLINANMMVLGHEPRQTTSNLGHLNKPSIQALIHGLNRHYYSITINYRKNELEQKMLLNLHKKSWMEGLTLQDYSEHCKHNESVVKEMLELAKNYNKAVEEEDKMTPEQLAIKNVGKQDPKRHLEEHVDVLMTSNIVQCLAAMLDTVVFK
Chain of Paired box protein Pax-8 (Q06710 whole entry): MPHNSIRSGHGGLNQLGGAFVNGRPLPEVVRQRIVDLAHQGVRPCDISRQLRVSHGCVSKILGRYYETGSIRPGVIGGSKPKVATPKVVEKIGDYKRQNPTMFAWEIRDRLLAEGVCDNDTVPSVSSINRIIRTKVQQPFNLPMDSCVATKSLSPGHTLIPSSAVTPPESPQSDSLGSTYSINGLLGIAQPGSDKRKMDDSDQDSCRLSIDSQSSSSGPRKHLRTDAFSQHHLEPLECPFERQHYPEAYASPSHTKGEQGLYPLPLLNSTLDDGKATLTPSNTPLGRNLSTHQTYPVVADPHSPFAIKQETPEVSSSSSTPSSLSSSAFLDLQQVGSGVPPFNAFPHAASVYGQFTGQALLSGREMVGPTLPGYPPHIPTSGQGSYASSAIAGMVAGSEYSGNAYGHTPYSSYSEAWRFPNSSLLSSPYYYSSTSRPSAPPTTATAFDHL

As to `CC[n+]1c(/C=C/N(C)c2ccccc2)sc2ccc(Cl)cc21`, the concentration at half-maximal activity (AC50) is 9.07 µM (active) in assay [1] and 17.8 µM (inconclusive) in assay [3]. Besides, in assay [2], the IC50 is > 80 µM (inactive).
As to `CCN1CCN(Cc2ccc(NC(=O)c3ccc(C)c(NC(=O)C(=O)c4c[nH]c5ccccc45)c3)cc2C(F)(F)F)CC1`, the 50% effective concentration (EC50) in [4] was 4.28 µM (active); in [9] it was 4.17 µM (inconclusive); in assay [10], 5.83 µM (active); in [11], > 89.2 µM (inactive); in assay [14] it was 7.65 µM (active); in [19], > 150 µM (not active). Also, the EC50 in assay [20] was 7.74 µM (active). For the same molecule, the AC50 was 7.69 µM (active) in [5]; 8.7 µM (active) in assay [6]; 12 µM (active) in assay [7]; 12.1 µM (active) in assay [8]; 11.3 µM (active) in assay [12]; 68 µM (active) in assay [15]. The AC50 in [16] is 14.1 µM (active). Further, the values for the IC50 in [13], in assay [17] and in assay [18] were > 20 µM (inactive), 39.7 µM (inactive) and 2.27 µM (active), respectively.
As to `CCN(CC)CCN=C(S)Nc1ccc2nc(N3CCN(C)CC3)cc(C)c2c1`, the figures for the concentration at half-maximal activity (AC50) in [21] and in assay [22] were 17.2 µM (active) and 5.01 µM (active), respectively.
Regarding `COC(=O)c1ccc(C(C(=O)NC2CCCCC2)N(Cc2ccccc2)C(=O)Cc2cccs2)cc1` (centres undefined), the half-maximal effective concentration (EC50) in [23] is 4.6 µM (active).
`Cc1ccc(/C=C2\SC(=S)N(CCCC(=O)NNC(=O)c3ccccc3O)C2=O)cc1`: the IC50 in assay [24] is > 80 µM (inactive); in assay [25], 32.8 µM (active); in assay [26], > 100 µM (inactive); in assay [27], 28.3 µM (active); in assay [28] it was > 94.1 µM (inactive).
Turning to `O=C(C1CC1)N1CCc2cc(Br)cc(S(=O)(=O)N3CCN(c4ccccn4)CC3)c21`, the IC50 in [29] is 1.06 µM (active).

Values taken from ChEMBL document CHEMBL1201862, “PubChem BioAssay data set” (2004).
